{
  "source": "the NIST ThermoML archive (doi:10.1016/j.jct.2012.12.026)",
  "details": "Liquid, Closed cell (Static) method",
  "note": "± gives the expanded uncertainty stated by the source.",
  "data": [
    {"smiles": "FC(F)C(F)F", "note": "[1,1,2,2-tetrafluoroethane]", "values": [
      {"measurement": "vapor or sublimation pressure", "setting": "278.15 K", "result": "271.3 ± 1.3", "unit": "kPa"},
      {"measurement": "vapor or sublimation pressure", "setting": "288.15 K", "result": "382.9 ± 1.5", "unit": "kPa"}
    ]},
    {"smiles": "F/C=C/C(F)(F)F", "note": "[trans-1,3,3,3-tetrafluoropropene]", "values": [
      {"measurement": "vapor or sublimation pressure", "setting": "258.15 K", "result": "120.2 ± 1", "unit": "kPa"},
      {"measurement": "vapor or sublimation pressure", "setting": "268.15 K", "result": "179.3 ± 1", "unit": "kPa"},
      {"measurement": "vapor or sublimation pressure", "setting": "278.15 K", "result": "259.2 ± 1.1", "unit": "kPa"},
      {"measurement": "vapor or sublimation pressure", "setting": "288.15 K", "result": "364.2 ± 1.1", "unit": "kPa"}
    ]}
  ]
}
